pEC50: −log10 of the molar value. Where two headings read alike, the source gives them in different places.
Tests used:
CRBN-DDB1 = CRBN-DDB1 (Homo sapiens (Human), UniProt Q96SW2); assay: Compound binding to CRBN by HTRF assay
Method in brief: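 HTRF displacement of Cy5-thalidomide probe (100 nM) from His-tagged CRBN-DDB1 (2.5 nM) with anti-His terbium cryptate, in HEPES/NaCl/TCEP/EDTA/Tween20 buffer; 11-point 1:3 dilution series, 30 min at ambient temperature. Signal (665/620 nm) normalized to lenalidomide and DMSO controls; EC50 fitted, Ki by Cheng-Prusoff from geometric mean EC50.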

NEK7 = NEK7 (Homo sapiens (Human), UniProt Q8TDX7+Q96SW2); assay: NEK7 NanoBiT degradation assay in Cal51 NEK7 NanoBiT cell line; assay type: cell-based; settings: Cal51 NEK7 NanoBiT cells, 24 hours; for Dmax: CAL-51
NEK7, sequence (Q8TDX7 whole entry): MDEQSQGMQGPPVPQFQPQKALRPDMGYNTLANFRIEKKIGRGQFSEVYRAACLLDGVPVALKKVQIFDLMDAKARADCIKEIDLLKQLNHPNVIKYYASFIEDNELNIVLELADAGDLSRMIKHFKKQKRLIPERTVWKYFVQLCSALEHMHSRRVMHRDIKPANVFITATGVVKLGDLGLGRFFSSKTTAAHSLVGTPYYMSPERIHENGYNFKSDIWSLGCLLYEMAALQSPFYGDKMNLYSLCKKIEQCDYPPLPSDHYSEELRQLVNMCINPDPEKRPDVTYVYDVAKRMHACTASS
NEK7, sequence (Q96SW2 whole entry): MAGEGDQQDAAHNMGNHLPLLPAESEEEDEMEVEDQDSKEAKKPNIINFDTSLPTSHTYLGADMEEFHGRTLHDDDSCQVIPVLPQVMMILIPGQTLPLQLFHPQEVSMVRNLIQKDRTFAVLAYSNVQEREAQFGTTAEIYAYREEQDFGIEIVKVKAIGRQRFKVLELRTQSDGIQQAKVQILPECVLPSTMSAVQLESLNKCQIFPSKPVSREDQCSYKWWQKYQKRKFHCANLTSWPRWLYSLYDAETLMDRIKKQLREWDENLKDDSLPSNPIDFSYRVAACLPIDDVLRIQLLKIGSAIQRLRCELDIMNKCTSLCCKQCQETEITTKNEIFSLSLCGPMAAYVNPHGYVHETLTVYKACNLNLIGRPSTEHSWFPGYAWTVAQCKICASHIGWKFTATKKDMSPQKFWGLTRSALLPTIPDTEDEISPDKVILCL
NEK7, sequence (Q16531 2-1140 partner): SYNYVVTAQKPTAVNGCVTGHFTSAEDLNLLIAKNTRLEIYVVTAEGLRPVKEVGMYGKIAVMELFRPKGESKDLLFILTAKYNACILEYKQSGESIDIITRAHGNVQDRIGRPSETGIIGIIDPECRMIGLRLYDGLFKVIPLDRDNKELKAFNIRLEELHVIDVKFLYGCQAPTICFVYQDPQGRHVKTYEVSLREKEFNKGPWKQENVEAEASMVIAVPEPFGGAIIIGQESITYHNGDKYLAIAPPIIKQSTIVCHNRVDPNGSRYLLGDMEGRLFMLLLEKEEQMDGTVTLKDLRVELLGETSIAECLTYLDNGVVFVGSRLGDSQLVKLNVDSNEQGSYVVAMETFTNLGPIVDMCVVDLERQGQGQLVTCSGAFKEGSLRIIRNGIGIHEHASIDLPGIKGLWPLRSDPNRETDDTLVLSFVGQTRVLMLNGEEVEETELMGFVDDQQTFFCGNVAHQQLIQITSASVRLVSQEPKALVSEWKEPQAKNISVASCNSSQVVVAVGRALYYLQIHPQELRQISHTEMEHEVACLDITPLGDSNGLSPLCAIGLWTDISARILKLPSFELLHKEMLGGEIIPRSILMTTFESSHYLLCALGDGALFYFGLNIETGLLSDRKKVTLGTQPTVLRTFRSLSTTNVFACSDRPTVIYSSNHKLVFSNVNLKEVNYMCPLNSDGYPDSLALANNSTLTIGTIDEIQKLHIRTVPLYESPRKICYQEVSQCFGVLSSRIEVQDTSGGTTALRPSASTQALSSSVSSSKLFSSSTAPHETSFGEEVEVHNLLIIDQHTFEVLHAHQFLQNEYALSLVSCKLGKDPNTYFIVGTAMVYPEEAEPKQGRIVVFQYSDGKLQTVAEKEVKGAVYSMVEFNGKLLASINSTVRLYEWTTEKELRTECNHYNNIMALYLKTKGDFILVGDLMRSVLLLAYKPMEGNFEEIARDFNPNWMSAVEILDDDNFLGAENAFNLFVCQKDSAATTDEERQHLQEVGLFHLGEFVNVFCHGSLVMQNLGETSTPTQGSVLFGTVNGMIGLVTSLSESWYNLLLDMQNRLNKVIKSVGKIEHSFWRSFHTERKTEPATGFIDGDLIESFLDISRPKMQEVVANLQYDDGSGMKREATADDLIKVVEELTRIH
Method in brief: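 Cal51 cells with CRISPR knock-in HiBiT-tagged endogenous NEK7 plus stable LgBiT, in live-cell Endurazine medium, seeded 16 h before dosing. Compounds at final 1 μM to 0.05 nM for 24 h at 37 °C, then luminescence read. Response normalized to plate controls and fitted with a 4-parameter logistic giving EC50.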

[1] = NEK7 degradation, read-out: NanoBiT Dmax
[2] = NEK7 degradation, read-out: NanoBiT DC50

CRBN-DDB1, sequence (Q96SW2 whole entry): as the sequence (Q96SW2 whole entry) above
CRBN-DDB1, sequence (Q16531 whole entry partner): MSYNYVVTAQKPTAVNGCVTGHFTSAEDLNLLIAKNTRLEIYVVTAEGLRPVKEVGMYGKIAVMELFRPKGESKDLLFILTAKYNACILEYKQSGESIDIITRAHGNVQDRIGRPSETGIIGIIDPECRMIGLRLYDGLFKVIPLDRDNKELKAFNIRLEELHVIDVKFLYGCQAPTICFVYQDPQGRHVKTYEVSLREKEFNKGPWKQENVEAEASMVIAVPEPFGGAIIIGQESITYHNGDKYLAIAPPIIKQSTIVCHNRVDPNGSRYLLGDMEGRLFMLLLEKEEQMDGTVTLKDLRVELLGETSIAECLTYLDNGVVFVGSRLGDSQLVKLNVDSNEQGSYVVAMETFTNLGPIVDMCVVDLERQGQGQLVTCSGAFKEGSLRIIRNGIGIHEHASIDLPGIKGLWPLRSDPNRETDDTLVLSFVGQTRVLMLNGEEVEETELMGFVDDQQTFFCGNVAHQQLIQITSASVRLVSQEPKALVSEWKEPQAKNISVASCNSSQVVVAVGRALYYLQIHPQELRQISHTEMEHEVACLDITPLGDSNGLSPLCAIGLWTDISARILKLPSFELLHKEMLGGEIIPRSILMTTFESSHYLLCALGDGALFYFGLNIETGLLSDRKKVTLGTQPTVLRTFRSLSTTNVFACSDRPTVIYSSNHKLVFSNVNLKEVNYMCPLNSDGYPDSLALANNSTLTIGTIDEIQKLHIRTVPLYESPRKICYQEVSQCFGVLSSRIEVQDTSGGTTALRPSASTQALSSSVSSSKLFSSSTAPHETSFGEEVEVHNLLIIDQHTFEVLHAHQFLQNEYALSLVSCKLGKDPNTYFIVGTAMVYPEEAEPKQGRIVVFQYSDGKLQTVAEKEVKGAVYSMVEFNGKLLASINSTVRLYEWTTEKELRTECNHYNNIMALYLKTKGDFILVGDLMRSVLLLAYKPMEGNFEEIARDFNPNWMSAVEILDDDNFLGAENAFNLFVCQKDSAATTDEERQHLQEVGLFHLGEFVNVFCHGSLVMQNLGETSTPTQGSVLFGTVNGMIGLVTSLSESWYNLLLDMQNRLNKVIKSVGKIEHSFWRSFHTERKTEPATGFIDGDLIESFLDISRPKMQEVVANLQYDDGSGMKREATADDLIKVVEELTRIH

pEC50 (CRBN-DDB1)	pEC50 (CRBN-DDB1; HTRF class, Cereblon binding)	Dmax (NEK7; read-out: NEK7 NanoBiT Dmax)	Dmax (NEK7; [1])	DC50 (NEK7; read-out: NEK7 NanoBiT DC50)	DC50 (NEK7; [2])	Structure (SMILES)
6.89	6.00 to 7.00	54%	50 to 75%	0.556 µM	0.1 to 1 µM	Cc1nnc(C2(C(=O)NCc3cc(Cl)c(C4CCC(=O)NC4=O)c(Cl)c3)CCC2)o1 (stereo not drawn) [Compound 226, N-(3,5-dichloro-4-(2,6-dioxopiperidin-3-yl)benzyl)-1-(5-methyl-1,3,4-oxadiazol-2-yl)-cyclobutane-1-carboxamide]
6.96	6.00 to 7.00	92%	> 75%	0.006 µM	≤ 0.1 µM	COc1conc1C(C)(C)C(=O)NCc1cc(Cl)c(C2CCC(=O)NC2=O)c(Cl)c1 (stereo not drawn) [Compound 227, N-(3,5-dichloro-4-(2,6-dioxopiperidin-3-yl)benzyl)-2-(4-methoxyisoxazol-3-yl)-2-methylpropanamide]
6.82	6.00 to 7.00	85%	> 75%	0.018 µM	≤ 0.1 µM	COCc1ccc(C(C)(C)C(=O)NCc2cc(Cl)c(C3CCC(=O)NC3=O)c(Cl)c2)nn1 (stereo not drawn) [Compound 228]
6.92	6.00 to 7.00	88%	> 75%	0.012 µM	≤ 0.1 µM	CC(C)(C(=O)NCc1cc(Cl)c(C2CCC(=O)NC2=O)c(Cl)c1)c1ncc(OC(F)(F)F)cn1 (stereo not drawn) [Compound 229, N-(3,5-dichloro-4-(2,6-dioxopiperidin-3-yl)benzyl)-2-methyl-2-(5-(trifluoromethoxy)-pyrimidin-2-yl)propanamide]
6.96	6.00 to 7.00	83%	> 75%	0.023 µM	≤ 0.1 µM	CC(C)(C(=O)NCc1cc(Cl)c(C2CCC(=O)NC2=O)c(Cl)c1)c1cc(C(F)(F)F)on1 (stereo not drawn) [Compound 230, N-(3,5-dichloro-4-(2,6-dioxopiperidin-3-yl)benzyl)-2-methyl-2-(5-(trifluoromethyl)isoxazol-3-yl)propanamide]
6.85	6.00 to 7.00	82%	> 75%	0.023 µM	≤ 0.1 µM	CC(C)(C(=O)NCc1cc(Cl)c(C2CCC(=O)NC2=O)c(Cl)c1)c1ncc(CO)cn1 (stereo not drawn) [Compound 231, N-(3,5-dichloro-4-(2,6-dioxopiperidin-3-yl)benzyl)-2-(5-(hydroxymethyl)pyrimidin-2-yl)-2-methylpropanamide]
6.82	6.00 to 7.00	93%	> 75%	0.003 µM	≤ 0.1 µM	CC(C)(C(=O)NCc1cc(Cl)c(C2CCC(=O)NC2=O)c(Cl)c1)c1cnc(C2CC2)cn1 (stereo not drawn) [Compound 232]
6.72	6.00 to 7.00	74%	50 to 75%	0.029 µM	≤ 0.1 µM	COCc1nc(C(C)(C)C(=O)NCc2cc(Cl)c(C3CCC(=O)NC3=O)c(Cl)c2)ncc1C (stereo not drawn) [Compound 233, N-(3,5-dichloro-4-(2,6-dioxopiperidin-3-yl)benzyl)-2-(4-(methoxymethyl)-5-methylpyrimidin-2-yl)-2-methylpropanamide]
7.15	≥ 7.00	97%	> 75%	0.001 µM	≤ 0.1 µM	CCOc1cnc(C(C)(C)C(=O)NCc2cc(Cl)c(C3CCC(=O)NC3=O)c(Cl)c2)cn1 (stereo not drawn) [Compound 234, N-(3,5-dichloro-4-(2,6-dioxopiperidin-3-yl)benzyl)-2-(5-ethoxypyrazin-2-yl)-2-methylpropanamide]
6.25	6.00 to 7.00	11%	≤ 50%	1 µM	> 1 µM	CC(C)(C(=O)NCc1cc(Cl)c(C2CCC(=O)NC2=O)c(Cl)c1)c1ncc(C(=O)O)cn1 (stereo not drawn) [Compound 235, 2-(1-((3,5-dichloro-4-(2,6-dioxopiperidin-3-yl)benzyl)amino)-2-methyl-1-oxopropan-2-yl)pyrimidine-5-carboxylic acid]
6.60	6.00 to 7.00	71%	50 to 75%	0.041 µM	≤ 0.1 µM	Cc1ocnc1C(C)(C)C(=O)NCc1cc(Cl)c(C2CCC(=O)NC2=O)c(Cl)c1 (stereo not drawn) [Compound 236]
6.82	6.00 to 7.00	87%	> 75%	0.011 µM	≤ 0.1 µM	[2H]C([2H])([2H])C(C(=O)NCc1cc(Cl)c(C2CCC(=O)NC2=O)c(Cl)c1)(c1ncc(C)cn1)C([2H])([2H])[2H] (stereo not drawn) [Compound 237]
6.77	6.00 to 7.00	63%	50 to 75%	0.153 µM	0.1 to 1 µM	CC(C)(O)c1cnc(C(C)(C)C(=O)NCc2cc(Cl)c(C3CCC(=O)NC3=O)c(Cl)c2)cn1 (stereo not drawn) [Compound 238, N-(3,5-dichloro-4-(2,6-dioxopiperidin-3-yl)benzyl)-2-(5-(2-hydroxypropan-2-yl)pyrazin-2-yl)-2-methylpropanamide]
6.18	6.00 to 7.00	47%	≤ 50%	0.909 µM	0.1 to 1 µM	Cc1nc(CNC(=O)C(C)(C)c2ccccc2)cc(Cl)c1C1CCC(=O)NC1=O (stereo not drawn) [Compound 239, N-((4-chloro-5-(2,6-dioxopiperidin-3-yl)-6-methylpyridin-2-yl)methyl)-2-methyl-2-phenylpropanamide]
6.82	6.00 to 7.00	69%	50 to 75%	0.079 µM	≤ 0.1 µM	CC(C)(C(=O)NCc1cc(Cl)c(C2CCC(=O)NC2=O)c(Cl)c1)c1cnc(CC(F)F)cn1 (stereo not drawn) [Compound 240]
6.85	6.00 to 7.00	86%	> 75%	0.015 µM	≤ 0.1 µM	Cc1cnc(C(C)(CO)C(=O)NCc2cc(Cl)c(C3CCC(=O)NC3=O)c(Cl)c2)nc1 (stereo not drawn) [Compound 241, N-(3,5-dichloro-4-(2,6-dioxopiperidin-3-yl)benzyl)-3-hydroxy-2-methyl-2-(5-methylpyrimidin-2-yl)propanamide]
6.37	6.00 to 7.00	59%	50 to 75%	0.319 µM	0.1 to 1 µM	CC(C)(C(=O)NCc1cc(Cl)c(C2CCC(=O)NC2=O)c(C#N)c1)c1ccccc1 (stereo not drawn) [Compound 242, N-(3-chloro-5-cyano-4-(2,6-dioxopiperidin-3-yl)benzyl)-2-methyl-2-phenylpropanamide]
6.80	6.00 to 7.00	48%	≤ 50%	0.672 µM	0.1 to 1 µM	COCCc1cnc(C(C)(C)C(=O)NCc2cc(Cl)c(C3CCC(=O)NC3=O)c(Cl)c2)nc1 (stereo not drawn) [Compound 245, N-(3,5-dichloro-4-(2,6-dioxopiperidin-3-yl)benzyl)-2-(5-(2-methoxyethyl)pyrimidin-2-yl)-2-methylpropanamide]
6.74	6.00 to 7.00	82%	> 75%	0.027 µM	≤ 0.1 µM	CC(C)(C(=O)NCc1ccc(C2CCC(=O)NC2=O)c(Cl)c1)c1nc2ccccc2o1 (stereo not drawn) [Compound 246, 2-(benzo[d]oxazol-2-yl)-N-(3-chloro-4-(2,6-dioxopiperidin-3-yl)benzyl)-2-methylpropanamide]
6.92	6.00 to 7.00	83%	> 75%	0.02 µM	≤ 0.1 µM	CCc1cnc(C(C)(C)C(=O)NCc2cc(Cl)c(C3CCC(=O)NC3=O)c(Cl)c2)cn1 (stereo not drawn) [Compound 247]
7.15	≥ 7.00	95%	> 75%	0.002 µM	≤ 0.1 µM	CC(C)(C(=O)NCc1cc(Cl)c(C2CCC(=O)NC2=O)c(Cl)c1)c1cnc(Cl)cn1 (stereo not drawn) [Compound 248]
7.15	≥ 7.00	87%	> 75%	0.007 µM	≤ 0.1 µM	CC(C)(C(=O)NCc1cc(F)c(C2CCC(=O)NC2=O)c(Cl)c1)c1nc2ccccc2o1 (stereo not drawn) [Compound 249]
7.15	≥ 7.00	96%	> 75%	0.002 µM	≤ 0.1 µM	COc1ccc(C(C)(C)C(=O)NCc2cc(F)c(C3CCC(=O)NC3=O)c(Cl)c2)cn1 (stereo not drawn) [Compound 250]
7.10	≥ 7.00	92%	> 75%	0.004 µM	≤ 0.1 µM	COc1cnc(C(C)(C)C(=O)NCc2cc(F)c(C3CCC(=O)NC3=O)c(Cl)c2)cn1 (stereo not drawn) [Compound 251]
7.30	≥ 7.00	93%	> 75%	0.003 µM	≤ 0.1 µM	CCOc1cnc(C(C)(C)C(=O)NCc2cc(F)c(C3CCC(=O)NC3=O)c(Cl)c2)cn1 (stereo not drawn) [Compound 252]
6.85	6.00 to 7.00	45%	≤ 50%	0.778 µM	0.1 to 1 µM	Cc1cnc(C(C)(C)C(=O)NCc2cc(F)c(C3CCC(=O)NC3=O)c(Cl)c2)nc1 (stereo not drawn) [Compound 253]
6.92	6.00 to 7.00	55%	50 to 75%	0.278 µM	0.1 to 1 µM	Cc1coc(C(C)(C)C(=O)NCc2cc(F)c(C3CCC(=O)NC3=O)c(Cl)c2)n1 (stereo not drawn) [Compound 254]

— patent US20250243180A1, “TARGETED PROTEIN DEGRADATION” (Monte Rosa Therapeutics AG, priority 2023, published 2025)
